Assay results reported in PMC8048308, “Lysophosphatidic acid (LPA)-antibody (504B3) engagement detected by interferometry identifies off-target binding” (Lipids in Health and Disease, 2021).
Several values for one entry are separate records, joined by “and”; a condition that tells them apart may be missing. Equal values may be shown once.

Key:
anti-LPA antibody, 504B3 = experiment: free solution assay (FSA) measured in a compensated interferometric reader (CIR), equilibrium binding of lipids to antibody; parameters: species or system murine; conditions: 5 μg/ml 504B3, 0–50 nM ligand; for Kd: read-out: KD from FSA ± SD (95% CI); for Bmax (95% CI): one-site specific binding fit of the ΔRI signal
Experimental: The FSA configuration required refractive index (RI)-matched sample and reference solutions (Fig. 2). The binding affinity determinations were done in an end-point assay format. A ligand dilution series (100, 20, 4, 0.8, 0.16, 0.032, and 0 nM) was prepared in 0.01% BSA / 0.002% EtOH/Phosphate buffered saline (PBS; ThermoFisher Scientific, Waltham, MA, USA) from an intermediate stock of 200 nM LPs in 0.01% BSA / 0.002% EtOH/PBS. Lipids were prepared in fatty acid-free BSA solutions to approximate the biological conditions of LPs. Then, each LP dilution was combined with PBS-only to create the reference solution, or 10 μg/ml of the 504B3 antibody in PBS to create the corresponding binding sample solution (Fig. 2). Sample and reference solutions were kept at RT in a shaker for approximately 1-h to reach equilibrium and then analyzed using the CIR. The final concentrations were 5 μg/ml of antibody and 0–50 nM of ligand in a final buffer composition of 0.005% BSA / 0.001% EtOH/PBS. The details of the interferometer instrumentation have been described elsewhere. Briefly, it consists of a diode laser, two mirrors, one glass capillary, and a CCD camera. Droplet trains of sample-reference pairs were maintained at a constant flow rate in the capillary using a droplet generator (Mitos Dropix; Dolomite Microfluidics, (Royston, North Hertfordshire, UK)) and a syringe pump (Harvard Apparatus, Holliston, MA, USA). Together, the interferometer, a syringe pump (at a flow rate of 10 μL/min), and a droplet generator comprise the CIR. The RI change between the binding sample and reference was measured as a positional shift in backscattered interference fringes produced from the interaction between an expanded beam profile of the laser and a capillary filled with sample-reference solutions [24]. The shift of the backscattered fringe patterns, which is equivalent to molecular binding, was quantified using fast Fourier transform of selected fringes captured in a CCD array. The assay was measured sequentially, as reference, then sample for each concentration, as described previously. The concentration dependent signal was plotted using a non-linear regression, one-site specific binding (Y=Bmax*X/(KD + X) + D; where D is the offset value) isotherm fit in GraphPad Prism Version 8 to determine the equilibrium dissociation constants (KDs). […] The sample and reference solutions were prepared by mixing a ligand dilution series (0–100 nM) with an equivalent volume of the 504B3 solution (sample; 10 μg/ml dissolved in PBS, pH 7.4) or PBS only (reference) (Fig. 2).

LPA1 = molecular target: LPA1; parameters: method as in PMID 30463988, PMID 32513900; conditions: CIR; cited from earlier work
[1] = 0.005% BSA / 0.001% EtOH/PBS, about 1 h at RT, one-site specific binding fit

| KD from FSA ± SD (95% CI) (anti-LPA antibody, 504B3; [1]) | Kd (anti-LPA antibody, 504B3; [1]) | Bmax (95% CI) (anti-LPA antibody, 504B3) | specific binding signal (ΔRI) with 504B3 (anti-LPA antibody, 504B3) | specific binding signal (ΔRI) with 504B3 (anti-LPA antibody, 504B3; listed as S1P) | SMILES | native equilibrium binding (KD) to LPA1 (LPA1) |
| --- | --- | --- | --- | --- | --- | --- |
| weaker affinity | > 30 nM | 0.39 (undetermined^a) |  |  | CCCCCCCCCCCCCCCC(=O)OC[C@@H](O)COP(=O)(O)O [16:0 LPA, 1-palmitoyl-LPA (16:0)] | comparable binding |
|  |  |  | No specific binding signal | no signal | CCCCCCCCCCCCC/C=C/[C@@H](O)[C@@H](N)COP(=O)(O)O [18:1 S1P, sphingosine 1-phosphate (d18:1)] |  |
|  | 3.7 ± 2.8 nM | 0.17 (0.14 to 0.25) |  |  | CCCCCCCC/C=C\CCCCCCCC(=O)OC[C@@H](O)COP(=O)(O)O [18:1 LPA, 1-oleoyl-LPA (18:1)] | comparable binding |

| SMILES | KD from FSA ± SD (95% CI) (anti-LPA antibody, 504B3; [1]) | Kd (anti-LPA antibody, 504B3; [1]) | Bmax (95% CI) (anti-LPA antibody, 504B3) | specific binding signal (ΔRI) with 504B3 (anti-LPA antibody, 504B3) | specific binding signal (ΔRI) with 504B3 (anti-LPA antibody, 504B3; listed as S1P) | native equilibrium binding (KD) to LPA1 (LPA1) |
| --- | --- | --- | --- | --- | --- | --- |
| CCCCCCCC/C=C\CCCCCCCC(=O)OC[C@@H](O)COP(=O)([O-])OCC[N+](C)(C)C [18:1 LPC, 1-oleoyl-lysophosphatidylcholine] |  | ~8.5 nM and 8.5 nM | 0.14 (0.12 to 0.16) |  |  |  |
